Consider 6 compounds from patent publication EP4292827A1, “INK COMPOSITION, ARTICLE, AND PRODUCTION METHOD THEREFOR” (Zeon Corporation, priority 2021, dated 2022).

For series [1] the following is noted: standard compounds with known logP values described in JIS 7260-117:2006, used for calibration curve; cited from earlier work.

Where two headings read alike, the source gives them in different places.

`C=CC(=O)OCCCCCCOc1ccc(C(=O)Oc2ccc(/C=N/N=C/c3ccc(OC(=O)c4ccc(OCCCCCCOC(=O)C=C)cc4)c(C(=O)OC)c3)cc2)cc1` [Example X1]: the chromatographic logP in the series “physchem” (hplc) turned out to be 6.01.

On to `CC(=O)Nc1ccccc1` [Acetanilide], for which the logP in series [1] is 1.0.

As to `C=CC(=O)OCCOc1ccc(-c2ccc(C#N)cc2)cc1` [Example X2], the chromatographic logP in the series “physchem” stood at 1.75.

As for `c1ccc(N(c2ccccc2)c2ccccc2)cc1` [Triphenylamine], the logP in series [1] is recorded as 5.7.

`C=CC(=O)OCCCCCCCCOC(=O)Oc1ccc(C(=O)Oc2ccc(OC(=O)c3ccc(OC(=O)OCCCCCCCCOC(=O)C=C)cc3)c(C)c2)cc1` [Example X4] returned a chromatographic logP in the series “physchem” of 5.11.

The compound `C=CC(=O)OCCCCOC(=O)Oc1ccc(C(=O)Oc2ccc(C(=O)O[C@H]3CO[C@@H]4[C@H]3OC[C@H]4OC(=O)c3ccc(OC(=O)c4ccc(OC(=O)OCCCCOC(=O)C=C)cc4)cc3)cc2)cc1` [Example X3] yielded a chromatographic logP in the series “physchem” of 3.58.
